In ChEMBL document CHEMBL5316358, “Structure-Activity Relationships of Ligand Binding to Oxysterol-Binding Protein (OSBP) and OSBP-Related Protein 4” (J Med Chem, 2023):

Experiments:
[1] = biological target: T1, Oxysterol-binding protein 2 (Homo sapiens, UniProt Q969R2); experiment: Displacement of [3H]-25-OHC from human ORP4 overexpressed in HEK293T cell lysate assessed as inhibition constant by competitive binding assay; type: subcellular
T1 sequence (Q969R2 whole entry): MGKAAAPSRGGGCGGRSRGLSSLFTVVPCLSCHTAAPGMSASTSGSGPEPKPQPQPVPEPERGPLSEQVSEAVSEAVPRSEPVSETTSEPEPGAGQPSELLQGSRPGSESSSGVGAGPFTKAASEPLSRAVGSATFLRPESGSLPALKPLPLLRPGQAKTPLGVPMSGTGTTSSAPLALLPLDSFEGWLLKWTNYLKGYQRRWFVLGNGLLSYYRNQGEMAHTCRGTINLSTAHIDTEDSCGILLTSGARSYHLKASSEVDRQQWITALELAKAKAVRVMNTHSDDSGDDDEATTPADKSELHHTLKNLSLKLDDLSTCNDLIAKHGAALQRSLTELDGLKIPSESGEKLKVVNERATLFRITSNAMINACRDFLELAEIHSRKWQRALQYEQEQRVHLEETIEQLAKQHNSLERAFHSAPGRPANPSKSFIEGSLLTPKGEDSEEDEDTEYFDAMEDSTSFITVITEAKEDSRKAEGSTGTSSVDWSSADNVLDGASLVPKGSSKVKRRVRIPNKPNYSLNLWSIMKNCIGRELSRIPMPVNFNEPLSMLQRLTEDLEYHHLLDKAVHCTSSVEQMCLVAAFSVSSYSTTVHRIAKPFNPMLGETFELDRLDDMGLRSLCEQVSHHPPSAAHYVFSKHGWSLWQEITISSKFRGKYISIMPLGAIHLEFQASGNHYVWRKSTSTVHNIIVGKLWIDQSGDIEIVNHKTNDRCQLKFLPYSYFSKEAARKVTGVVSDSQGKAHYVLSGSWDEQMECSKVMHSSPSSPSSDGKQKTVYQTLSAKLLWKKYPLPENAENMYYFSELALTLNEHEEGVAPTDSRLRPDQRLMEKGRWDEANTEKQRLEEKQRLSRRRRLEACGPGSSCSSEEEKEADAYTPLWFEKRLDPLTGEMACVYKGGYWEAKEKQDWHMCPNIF

[2] = biological target: T2, Oxysterol-binding protein 1 (Homo sapiens, UniProt P22059); experiment: Binding affinity to human OSBP
T2 sequence (P22059 whole entry): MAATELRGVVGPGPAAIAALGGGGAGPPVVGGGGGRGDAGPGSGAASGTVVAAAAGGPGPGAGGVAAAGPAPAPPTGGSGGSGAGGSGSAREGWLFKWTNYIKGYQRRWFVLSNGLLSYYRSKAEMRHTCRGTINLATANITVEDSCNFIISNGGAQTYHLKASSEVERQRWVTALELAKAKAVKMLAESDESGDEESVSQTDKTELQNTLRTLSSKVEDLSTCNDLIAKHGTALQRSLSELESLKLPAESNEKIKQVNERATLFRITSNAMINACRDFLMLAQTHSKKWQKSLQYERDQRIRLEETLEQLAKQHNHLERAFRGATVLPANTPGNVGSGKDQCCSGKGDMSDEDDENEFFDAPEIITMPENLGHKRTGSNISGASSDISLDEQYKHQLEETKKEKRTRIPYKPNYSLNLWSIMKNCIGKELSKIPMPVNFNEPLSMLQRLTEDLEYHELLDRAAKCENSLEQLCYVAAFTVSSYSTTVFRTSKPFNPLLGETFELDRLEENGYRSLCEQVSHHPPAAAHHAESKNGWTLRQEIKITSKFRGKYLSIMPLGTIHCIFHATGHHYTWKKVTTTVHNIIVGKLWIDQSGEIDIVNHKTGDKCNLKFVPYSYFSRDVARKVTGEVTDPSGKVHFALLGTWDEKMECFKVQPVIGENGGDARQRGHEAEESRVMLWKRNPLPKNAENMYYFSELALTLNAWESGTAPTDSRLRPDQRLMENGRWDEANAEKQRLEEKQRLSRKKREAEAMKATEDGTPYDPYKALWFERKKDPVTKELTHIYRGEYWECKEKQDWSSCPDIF

[3] = biological target: T2, Oxysterol-binding protein 1; experiment: Displacement of [3H]-25-OHC from human OSBP overexpressed in HEK293T cell lysate assessed as inhibition constant by competitive binding assay
[4] = biological target: T1, Oxysterol-binding protein 2; experiment: Displacement of [3H]-25-OHC from human ORP4 overexpressed in HEK293T cell lysate assessed as inhibition constant; type: subcellular
[5] = biological target: T2, Oxysterol-binding protein 1; experiment: Displacement of [3H]-25-OHC from human OSBP overexpressed in HEK293T cell lysate assessed as inhibition constant; type: subcellular

| Structure (SMILES) | Ki [1] [nM] | Ki [3] [nM] | other results |
| --- | --- | --- | --- |
| CC(C)CC[C@H](O)[C@@H](C)[C@H]1CC[C@H]2[C@@H]3CC=C4C[C@@H](O)CC[C@]4(C)[C@H]3CC[C@]12C | > 3000 |  |  |
| C[C@H](CCCC(C)(C)O)[C@H]1CC[C@H]2[C@@H]3CC=C4C[C@@H](O)CC[C@]4(C)[C@H]3CC[C@]12C |  |  | Kd [2]: 22 nM |
| CC(C)[C@@H](O)CC[C@@H](C)[C@H]1CC[C@H]2[C@@H]3CC=C4C[C@@H](O)CC[C@]4(C)[C@H]3CC[C@]12C | 400 |  |  |
| CC(C)CCC[C@](C)(O)[C@H]1CC[C@H]2[C@@H]3CC=C4C[C@@H](O)CC[C@]4(C)[C@H]3CC[C@@]21C | 320 | 130 |  |
| C[C@@H](CO)CCC[C@@H](C)[C@H]1CC[C@H]2[C@@H]3CC=C4C[C@@H](O)CC[C@]4(C)[C@H]3CC[C@]12C | > 1000 |  |  |
| CCN(CC)CCO[C@H]1CC[C@@]2(C)C(=CC[C@@H]3[C@@H]2CC[C@]2(C)C(=O)CC[C@@H]32)C1 | > 50000 |  |  |
| COc1ccc(C(=O)O[C@H]2[C@H](O[C@@H]3[C@@H](OC(C)=O)[C@H](O[C@H]4C[C@H]5[C@@H]6CC=C7C[C@@H](O)CC[C@]7(C)[C@H]6CC[C@]5(C)[C@@]4(O)[C@H](C)C(=O)CCC(C)C)OC[C@@H]3O)OC[C@@H](O)[C@@H]2O)cc1 |  |  | Ki [4]: 71 nM; Ki [5]: 16 nM |
| C[C@H](O)[C@H]1CC[C@H]2[C@@H]3CC=C4C[C@@H](O)CC[C@]4(C)[C@H]3CC[C@]12C | > 100000 |  |  |
| C[C@H](CCCC(C)(C)O)[C@H]1CC[C@H]2[C@@H]3[C@H](O)C=C4C[C@@H](O)CC[C@]4(C)[C@H]3CC[C@]12C | 92 | 78 |  |
| C[C@H](CO)CCC[C@@H](C)[C@H]1CC[C@H]2[C@@H]3CC=C4C[C@@H](O)CC[C@]4(C)[C@H]3CC[C@]12C | > 870 |  |  |
| CCCCCCCC[C@](C)(O)[C@H]1CC[C@H]2[C@@H]3CC=C4C[C@@H](O)CC[C@]4(C)[C@H]3CC[C@@]21C | > 20000 | > 10000 |  |
| CC(C)C[C@](C)(O)[C@H]1CC[C@H]2[C@@H]3CC=C4C[C@@H](O)CC[C@]4(C)[C@H]3CC[C@@]21C | > 30000 | > 20000 |  |
| CC[C@](C)(O)[C@H]1CC[C@H]2[C@@H]3CC=C4C[C@@H](O)CC[C@]4(C)[C@H]3CC[C@@]21C | > 30000 | > 30000 |  |
| CC1(C)C[C@H]2[C@@H]3CC=C4C[C@@H](OC5CCCCO5)CC[C@]4(C)[C@H]3CC[C@]2(C)[C@H]1O (stereo partly drawn) |  |  | Ki [4]: 98 nM; Ki [5]: 22 nM |
| C[C@]12CC[C@H](O)CC1=CC[C@@H]1[C@@H]2CC[C@]2(C)C([C@H](O)CO)=CC[C@@H]12 | > 50000 | > 50000 |  |
| CC(C)CC[C@](C)(O)[C@H]1CC[C@H]2[C@@H]3CC=C4C[C@@H](O)CC[C@]4(C)[C@H]3CC[C@@]21C | > 2000 | 1300 |  |
| CC(C)CCN[C@@H](C)[C@H]1CC[C@H]2[C@@H]3CC=C4C[C@@H](O)CC[C@]4(C)[C@H]3CC[C@]12C | > 100000 | > 100000 |  |
| CCCC[C@](C)(O)[C@H]1CC[C@H]2[C@@H]3CC=C4C[C@@H](O)CC[C@]4(C)[C@H]3CC[C@@]21C | > 30000 | > 10000 |  |
| CCCCC[C@](C)(O)[C@H]1CC[C@H]2[C@@H]3CC=C4C[C@@H](O)CC[C@]4(C)[C@H]3CC[C@@]21C | 780 | 600 |  |
| C[C@@H]1[C@@]2(CC[C@](C)(O)CO2)O[C@H]2C=C3[C@@H]4[C@@H](O)C[C@H]5Cc6nc7c(nc6C[C@]5(C)[C@H]4C[C@@H](O)[C@]3(C)[C@]21O)C[C@@H]1CC[C@H]2[C@H]3C[C@@H]4O[C@@]5(CCC(C)(C)O5)[C@@H](C)[C@@H]4[C@@]3(C)[C@H](O)C[C@@H]2[C@@]1(C)C7 |  |  | Ki [4]: > 360 nM; Ki [5]: 28 nM |
| C[C@H](CCCC(C)(C)O)[C@H]1CC[C@H]2[C@@H]3CCC4C[C@@H](O)CC[C@]4(C)[C@H]3CC[C@]12C (stereo partly drawn) | 51 |  |  |
| CC(C)C[C@@](C)(O)[C@H]1CC[C@H]2[C@@H]3CC=C4C[C@@H](O)CC[C@]4(C)[C@H]3CC[C@@]21C | > 50000 | > 50000 |  |
| CCCCCCCC[C@@](C)(O)[C@H]1CC[C@H]2[C@@H]3CC=C4C[C@@H](O)CC[C@]4(C)[C@H]3CC[C@@]21C | > 100000 | > 100000 |  |
| CC(C)CC[C@@H](O)[C@](C)(O)[C@H]1CC[C@H]2[C@@H]3CC=C4C[C@@H](O)CC[C@]4(C)[C@H]3CC[C@]12C | > 15000 | > 30000 |  |
| CC(C)CC[C@@H](O)[C@@H](C)[C@H]1CC[C@H]2[C@@H]3CC=C4C[C@@H](O)CC[C@]4(C)[C@H]3CC[C@]12C [22(R)-HYDROXYCHOLESTEROL] | > 50000 |  |  |
| C[C@@H]1[C@]2(O[C@H]3C=C4[C@@H]5CC[C@H]6Cc7nc8c(nc7C[C@]6(C)[C@H]5C[C@@H](O)[C@]4(C)[C@]31O)C[C@@H]1CC[C@H]3C4=CC[C@@H]5[C@H](C)[C@@]6(OC[C@]45C(=O)C[C@@H]3[C@@]1(C)C8)OC(C)(C)C[C@H]6O)O[C@](C)(CO)C[C@H]2O [CEPHALOSTATIN 1] |  |  | Ki ([4]; hek293t): 78 nM; Ki ([5]; hek293t): 39 nM |
| C[C@@H]1CC[C@@]2(OC1)O[C@H]1C[C@H]3[C@@H]4CC=C5C[C@@H](O)CC[C@]5(C)[C@H]4CC[C@]3(C)[C@H]1[C@@H]2C [DISOGENIN] |  | > 100000 |  |
| CC(C)(O)[C@H]1O[C@H]2CC[C@@]3(C)[C@@](O)(CC[C@H]4Cc5c([nH]c6ccccc56)[C@@]43C)C2=CC1=O [PAXILLINE] | > 30000 | > 50000 |  |
| CC(C)=CCC/C(C)=C/Cc1c(O)cc(/C=C/c2cc(O)c3c(c2)C[C@@H]2C(C)(C)[C@H](O)[C@H](O)C[C@@]2(C)O3)cc1O [SCHWEINFURTHIN A] |  |  | Ki ([4]; hek293t): 2600 nM; Ki ([5]; hek293t): 68 nM |
